The values that follow come from article PMC5531278 (Bioorganic & medicinal chemistry letters, 2016).

By microsomal CLint is commonly meant the rate of metabolic loss divided by the concentration. A higher microsomal CLint goes with rapid turnover. A word on the IC50: it is the concentration needed to halve the response being measured. One may read the Papp A→B as how fast a substance crosses the layer from the apical side. Lower therefore signals poor permeation. As usually defined, the Papp B→A is the apparent permeability from the basolateral to the apical side of a cell layer. One may read the half-life as how long it takes for the measured level to halve. Low readings indicate rapid decline, high ones slow decline.

Read-outs that look alike come from different tables or passages of the source. A value given as a limit tells only on which side of the number the result lay.

The subject of one data set is CD-1 mice. The following applies: mouse, in vivo.
A short description of data set [1]: in vitro. The following applies: human, microsomes.
The test system of a further data set is GL261-luc2. Put plainly: MTT cell viability assay in GL261-luc2. The following applies: Mus musculus, 72 h, read-out: MTT assay IC50. The format is cell-based. A general note: Formazan colour is commonly taken as a measure of viable cells.
Data set [2] can be described thus: Bidirectional Caco-2 cell monolayer permeability. The conditions noted are these: human, Caco-2, pH 6.5. In general terms: Passage across Caco-2 layers is used to estimate intestinal permeability.
Another data set has as its system Caco-2 cell monolayer. In words: Bidirectional Caco-2 cell monolayer permeability. The conditions noted are these: based on the Caco-2 permeability study.
Data set [3] is described as follows: in vitro. The following applies: mouse.

Regarding `O=C(O)c1cc2ccc(N(Cc3ccccc3)Cc3ccccc3)cc2oc1=O` [4a, 7-(dibenzylamino)-2-oxo-2H-chromene-3-carboxylic acid], the “Body weights compared to the control group” value with CD-1 mice (ip, 20 mg/kg) is on record as “no significant difference in body weights”; in the data set on CD-1 mice (po, 100 mg/kg) it was “no significant difference in body weights”. Further, the “Visible toxic effects or mortality” value in the data set on CD-1 mice (ip, 20 mg/kg) was “did not show any visible toxic effects or mortality”; in the data set with CD-1 mice (po, 100 mg/kg), “did not show any visible toxic effects or mortality”. Moreover, the microsomal CLint at 0.1 μM in the data set “in vitro [1]” and in the data set “in vitro [3]” (microsomes) was under 116 µL/min/mg throughout. The IC50 with GL261-luc2 is over 250 µM. The compound also had a Papp A→B at 10 µM in data set [2] of 32 ×10⁻⁶ cm/s. In data set [2], this compound had a Papp B→A at 10 µM of 6.4 ×10⁻⁶ cm/s. Further, the Absorption with Caco-2 cell monolayer is reported as ~ 30%. The half-life at 0.1 μM is 90.6 min in “in vitro [3]” (microsomes, Half-life Trial 1) and 73.5 min in “in vitro [3]” (microsomes, Half-life Trial 2).

Regarding `O=C(O)c1cc2ccc(N3CCCC3)cc2oc1=O` [4b], in the data set with GL261-luc2, the IC50 was over 250 µM.

With `CCCN(CCC)c1ccc2cc(C(=O)O)c(=O)oc2c1` [4c], in the data set with GL261-luc2, the IC50 was over 250 µM.

`C=CCN(CC=C)c1ccc2cc(C(=O)O)c(=O)oc2c1` [4d]: the IC50 with GL261-luc2 was over 250 µM.

In the case of `C#CCN(CC#C)c1ccc2cc(C(=O)O)c(=O)oc2c1` [4e], the IC50 in the data set on GL261-luc2 is over 250 µM.

`CC(C)NCC(O)COc1cccc2ccccc12` (centres unmarked) [Propranolol] yielded a half-life at 0.1 μM in “in vitro [3]” (liver microsomes, Half-life Trial 2, mouse liver microsomes, 0.1 μM) of 9.5 min.
